Data as given in patent US11285218B2, “Degradation of bromodomain-containing protein 9 (BRD9) by conjugation of BRD9 inhibitors with E3 ligase ligand and methods of use” (Dana-Farber Cancer Institute, Inc., priority 2016, dated 2022).

Legend:
BRD9 [1] = biological target: T1, BRD9 (Homo sapiens, UniProt Q9H8M2); experiment: BRD9-ligand displacement AlphaScreen; format: binding
T1 construct: A construct of human BRD9 covering residues 134-0245 in the pET28PP vector; made in house; host or cells: E. coli BL21 (DE3)
T1 sequence (Q9H8M2 134-245 limits assumed): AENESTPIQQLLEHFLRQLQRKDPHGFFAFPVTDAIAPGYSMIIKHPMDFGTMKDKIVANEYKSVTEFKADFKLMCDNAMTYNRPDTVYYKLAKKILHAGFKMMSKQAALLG
Experimental: BRD9 assays were performed with minimal modifications from the manufacturer's protocol (PerkinElmer, USA). All reagents were diluted in 50 mM HEPES, 150 mM NaCl, 0.1% w/v BSA, 0.01% w/v Tween20, pH 7.5. […] Plates were spun down at 150×g, and 100 nL of DMSO compound stock was added from pre-diluted plates by pin transfer using a Janus Workstation (PerkinElmer, USA). Under low light, a 2× suspension of Ni-coated Acceptor Beads and Streptavidin Donor Beads, was then added at 10 ul/well to a final concentration of 5 μg/ml by EL406 automated liquid handler (Biotek, USA).

CRBN-DDB1 = biological target: T2, CRBN-DDB1 (Homo sapiens, UniProt Q96SW2); experiment: CRBN-DDB1 ligand-displacement AlphaScreen; format: binding; conditions: for IC50: purified CRBN-DDB1 ligand displacement
T2 construct: made in house; host or cells: Sf9 cells (Invitrogen)
Experimental: Following a 30 min incubation, 20 uL detection solution containing Streptavidin Donor Beads and Nickel Chelate AlphaLISA® Acceptor Beads diluted to 20 ng/uL in assay buffer was added to each well.

[2] = biological target: BRD9:CRBN-DDB1 protein complex (Homo sapiens, UniProt Q96SW2+Q9H8M2); experiment: BRD9:CRBN-DDB1 dimerization assay (luminescence); conditions: for BRD9:CRB9-DDB1 AUC / BRD9:CRB9-DDB1 Cmax: luminescence detection of dimerization assay; for formation of the BRD9:CRBN-DDB1 protein complex: relative to unmodified thalidomide, in words
Experimental: To measure this activity, a homogenous luminescence assay was developed to report on compound-induced proximity of BRD9 and CRBN.
To detect CRBN-DDBI/BRD4 dimerization, we adapted bead-based AlphaScreen technology. […] Compounds were then pinned at 100 nL per well from DMSO stock. After 1 incubation at room temperature. Nickel Chelate AlphaLISA Acceptor and Glutathione AlphaLISA Donor beads (PerkinElmer) were diluted in assay buffer to 20 μg/mL and added at 20 μl per well.

BRD4(1) = BRD4(1) (Homo sapiens, UniProt O60885); experiment: BRD4(1) ligand-displacement AlphaScreen; format: binding; set-up: substituting protein and biotin-probe components for BRD4(1) protein at 20 nM final; His tag (inferred from Ni-coated acceptor beads)
BRD9 [3] = biological target: T3, BRD9 (Homo sapiens, UniProt Q9H8M2); experiment: BRD9 immunoblot in MOLM-13; conditions: MOLM-13, 4 hour treatment, indicated concentrations; in words
T3 sequence (Q9H8M2 1-597): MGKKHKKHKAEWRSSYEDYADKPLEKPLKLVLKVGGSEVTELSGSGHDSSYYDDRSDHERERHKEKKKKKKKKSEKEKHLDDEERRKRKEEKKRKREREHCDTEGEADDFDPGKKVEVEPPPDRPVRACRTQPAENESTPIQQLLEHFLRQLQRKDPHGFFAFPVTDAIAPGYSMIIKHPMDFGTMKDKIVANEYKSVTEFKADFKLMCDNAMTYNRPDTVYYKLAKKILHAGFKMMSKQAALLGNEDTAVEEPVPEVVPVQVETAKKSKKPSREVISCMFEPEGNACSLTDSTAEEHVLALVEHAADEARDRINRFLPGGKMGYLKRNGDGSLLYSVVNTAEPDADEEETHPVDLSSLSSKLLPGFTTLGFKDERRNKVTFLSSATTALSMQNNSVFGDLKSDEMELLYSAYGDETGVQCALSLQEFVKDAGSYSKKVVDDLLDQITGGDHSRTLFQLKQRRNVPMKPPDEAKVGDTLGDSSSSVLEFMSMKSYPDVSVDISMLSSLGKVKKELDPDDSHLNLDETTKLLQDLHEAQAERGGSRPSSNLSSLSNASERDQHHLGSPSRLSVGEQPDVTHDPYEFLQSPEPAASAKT
Experimental: In additional experiments, cells were washed with PBS, before being lysed in RIPA buffer supplemented with 1×HALT™ protease inhibitor cocktail (Thermo Scientific) for 10 min on ice, followed by low-amplitude sonication for 10 seconds at 4° C. […] In soluble material was removed by centrifugation at 20,000×g for 20 min before protein content was quantified by BCA assay (Pierce). […] Blots were imaged using fluorescence-labeled secondary antibodies (LI-COR) on the OdysseyCLxImager (LI-COR).

T2 sequence (Q96SW2 whole entry): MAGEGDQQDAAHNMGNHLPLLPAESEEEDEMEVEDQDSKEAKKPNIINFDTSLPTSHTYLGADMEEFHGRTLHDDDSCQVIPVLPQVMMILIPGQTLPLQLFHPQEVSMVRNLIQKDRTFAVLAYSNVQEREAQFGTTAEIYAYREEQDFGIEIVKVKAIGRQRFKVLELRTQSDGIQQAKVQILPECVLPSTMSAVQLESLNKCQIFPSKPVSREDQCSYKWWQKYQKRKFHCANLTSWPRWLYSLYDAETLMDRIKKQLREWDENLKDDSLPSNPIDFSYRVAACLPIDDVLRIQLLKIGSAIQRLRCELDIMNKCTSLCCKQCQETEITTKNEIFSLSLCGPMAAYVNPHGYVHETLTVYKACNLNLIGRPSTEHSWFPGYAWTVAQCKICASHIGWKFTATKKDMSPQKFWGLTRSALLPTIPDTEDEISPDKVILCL
T2 sequence (Q16531 whole entry partner): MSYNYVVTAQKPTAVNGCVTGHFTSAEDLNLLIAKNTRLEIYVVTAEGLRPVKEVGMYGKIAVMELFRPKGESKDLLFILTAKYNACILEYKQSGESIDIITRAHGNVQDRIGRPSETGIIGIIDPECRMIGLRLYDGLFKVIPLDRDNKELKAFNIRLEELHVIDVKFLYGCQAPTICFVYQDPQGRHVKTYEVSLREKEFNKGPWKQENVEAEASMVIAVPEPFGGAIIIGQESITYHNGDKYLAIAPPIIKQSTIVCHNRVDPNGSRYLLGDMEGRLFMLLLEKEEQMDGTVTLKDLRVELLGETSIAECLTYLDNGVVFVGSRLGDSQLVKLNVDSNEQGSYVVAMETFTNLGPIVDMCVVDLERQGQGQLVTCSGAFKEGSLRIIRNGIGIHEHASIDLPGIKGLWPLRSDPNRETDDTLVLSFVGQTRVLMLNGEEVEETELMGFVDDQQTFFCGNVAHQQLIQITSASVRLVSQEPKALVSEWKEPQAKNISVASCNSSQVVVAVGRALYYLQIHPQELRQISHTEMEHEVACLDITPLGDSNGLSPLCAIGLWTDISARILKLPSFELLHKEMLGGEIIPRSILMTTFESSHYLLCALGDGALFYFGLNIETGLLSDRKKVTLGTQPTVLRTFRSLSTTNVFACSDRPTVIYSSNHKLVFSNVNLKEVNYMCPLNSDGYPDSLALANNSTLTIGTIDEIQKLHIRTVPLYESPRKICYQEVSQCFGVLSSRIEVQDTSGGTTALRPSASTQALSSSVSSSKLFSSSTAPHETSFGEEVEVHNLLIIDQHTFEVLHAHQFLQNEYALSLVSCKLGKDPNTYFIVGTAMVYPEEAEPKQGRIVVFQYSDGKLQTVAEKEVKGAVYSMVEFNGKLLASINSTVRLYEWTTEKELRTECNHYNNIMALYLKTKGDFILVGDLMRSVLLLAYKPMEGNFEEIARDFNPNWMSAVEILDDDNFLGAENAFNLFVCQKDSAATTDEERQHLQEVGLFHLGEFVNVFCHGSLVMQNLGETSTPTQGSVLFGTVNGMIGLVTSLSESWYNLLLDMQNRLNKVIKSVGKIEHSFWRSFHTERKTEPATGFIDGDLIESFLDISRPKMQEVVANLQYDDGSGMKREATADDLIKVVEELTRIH
Sequence of BRD9:CRBN-DDB1 protein complex (Q96SW2 whole entry, one chain of several): as the sequence (Q96SW2 whole entry) above
Sequence of BRD9:CRBN-DDB1 protein complex (Q16531 whole entry partner, one chain of several): as the sequence (Q16531 whole entry partner) above

Row | SMILES | IC50 (BRD9 [1]) [nM] | IC50 (CRBN-DDB1) [nM] | BRD9:CRB9-DDB1 AUC [2] | BRD9:CRB9-DDB1 Cmax [2] [nM] | formation of the BRD9:CRBN-DDB1 protein complex [2] | IC50 (BRD4(1)) [nM] | BRD9:CRBN-DDB1 dimerization, comparison in words [2] | BRD9 protein level (immunoblot) (BRD9 [3]) | CRBN-DDB1 affinity, in words (CRBN-DDB1; comparison of phthalimide linkages)
1 | COc1cc(-c2cn(C)c(=O)c3cc(C(=N)NC4CCS(=O)(=O)CC4)sc23)ccc1OCC(=O)NCCCCNC(=O)COc1cccc2c1C(=O)N(C1CCC(=O)NC1=O)C2=O (stereo not drawn) [Compound I-1] | 13.5 | 48.9 | 44270 | 42.5 | significantly induce formation of the complex | 3780 | – | – | –
2 | COc1cc(-c2cn(C)c(=O)c3cc(C(=N)NC4CCS(=O)(=O)CC4)sc23)ccc1OCC(=O)NCCCOCCOCCOCCCNC(=O)COc1cccc2c1C(=O)N(C1CCC(=O)NC1=O)C2=O (stereo not drawn) [Compound I-3] | 36.5 | 49.5 | 50182 | 44.9 | significantly induce formation of the complex | 3140 | reduced this activity | – | –
3 | COc1cc(-c2cn(C)c(=O)c3cc(C(=N)NC4CCS(=O)(=O)CC4)sc23)ccc1OCC(=O)NCCCCCCCCNC(=O)COc1cccc2c1C(=O)N(C1CCC(=O)NC1=O)C2=O (stereo not drawn) [Compound I-2] | 18.9 | 43.7 | 71477 | 95.1 | significantly induce formation of the complex | 3390 | improved dimerization relative to the short four-carbon linked compound I-1 | Marked protein loss | –
4 | COc1cc(-c2cn(C)c(=O)c3cnccc23)cc(OC)c1CN(C)CC(=O)NCCCCCCNc1ccc2c(c1)C(=O)N(C1CCC(=O)NC1=O)C2=O (stereo not drawn) [Compound I-12] | 56.6 | 8.5 | 60256 | 8.39 | significantly induce formation of the complex | > 50000 | – | – | –
5 | COc1cc(-c2cn(C)c(=O)c3cc(C(=N)NC4CCS(=O)(=O)CC4)sc23)ccc1OCC(=O)NCCCCCCCCNc1cccc2c1C(=O)N(C1CCC(=O)NC1=O)C2=O (stereo not drawn) [Compound I-5] | 15.5 | 10.8 | 67227 | 37.4 | significantly induce formation of the complex | 1560 | – | effectively downregulate BRD9 over a broad range of concentrations | –
6 | COc1cc(-c2cn(C)c(=O)c3cnccc23)cc(OC)c1CN(C)CC(=O)NCCOCCOCCOCC(=O)N[C@@H](C(=O)N1C[C@@H](O)C[C@@H]1C(=O)NCc1ccc(-c2scnc2C)cc1)C(C)(C)C [Compound I-23] | 43.2 | – | – | – | – | > 50000 | – | – | –
7 | COc1cc(-c2cn(C)c(=O)c3cc(C(=N)NC4CCS(=O)(=O)CC4)sc23)ccc1OCC(=O)NCCCCCCOc1cccc2c1C(=O)N(C1CCC(=O)NC1=O)C2=O (stereo not drawn) [Compound I-8] | 30 | 20.1 | 144813 | 111 | significantly induce formation of the complex | 7000 | further improved dimerization relative to compound I-2 | Marked protein loss | slightly improved binding over acetamide ethers I-1 and I-2
8 | COc1cc(-c2cn(C)c(=O)c3cnccc23)cc(OC)c1CN(C)CC(=O)NCCCCCCCCNC(=O)COc1cccc2c1C(=O)N(C1CCC(=O)NC1=O)C2=O (stereo not drawn) [Compound I-24] | 48 | 14.8 | 58563 | 27.3 | significantly induce formation of the complex | > 50000 | – | – | –
9 | COc1cc(-c2cn(C)c(=O)c3cnccc23)cc(OC)c1CN(C)CC(=O)NCCCCCCCCNc1cccc2c1C(=O)N(C1CCC(=O)NC1=O)C2=O (stereo not drawn) [Compound I-15] | 83.1 | 8.35 | 139380 | 8.22 | significantly induce formation of the complex | > 50000 | – | – | –
